Values joined by “and” are separate entries in the source; they are usually repeats but may differ in a detail not shown here. Equal entries are not always repeated. “Also recorded” adds a separate entry of the source. Where two headings read alike, the source gives them in different places.
System: Coptotermes formosanus
Conditions: for Surface Activity (termites on the surface of the soil) / Tunneling Activity / Visible Mortality / repellent effect on termites (surface activity data) / termite mortality by the end of the incubation period / toxic value, lower (concentration at which the wood is no longer sufficiently protected) / toxic value, upper (lowest concentration which protects the wood) / Mean Rating (termite attack) / Termite Attack Rating: ethanol carrier; for reduction in termite attack: concentrated solutions, followed by leaching; for termite mortality by the end of the incubation period: higher concentrations; for toxic value, lower (concentration at which the wood is no longer sufficiently protected) / toxic value, upper (lowest concentration which protects the wood): mean loading, leached; for toxic value, lower (concentration at which the wood is no longer sufficiently protected): solution concentration 5%; for toxic value, upper (lowest concentration which protects the wood): solution concentration 7%; for Mean Rating (termite attack): mean of 4 specimens; for Mean Rating (termite attack) / Termite Attack Rating: 4 weeks sand culture; for Termite Attack Rating: single specimen
From the text: A laboratory test was undertaken to determine the toxic values of novel actives against termites. The active materials used were TBBA, TBBE [4,4′-ethylidenebis(2,6-dibromophenol)] [CAS RN=12639-25-3] (Sample Number 1392-82-03); TBBZ [4,4′-cyclohexylidene(2,6-dibromophenol)] [CAS RN=53350-96-2] (Sample Number 1392-72-03) and TBA, 2,2′,6-tribromo-4,4′-isopropylidenediphenol, CAS 6386-73-8 (Sample Number 1392-75-03).
The test was undertaken largely according to the strictures laid down in ASTM 3345-74 (the American standard laboratory test to assess the termite resistant properties of wood to wood destroying termites). The test method allows for the exposure of treated buried wood blocks to termites (Reticulitermes or Coptotermes spp.) over a period of 4 weeks. Efficacy of the product is determined by the extent of termite damage to the treated timber specimens through a scoring system. The test was slightly modified from the standard ASTM test by reducing the number of replicate wood specimens from 5 to 4.
Score 1: Attempted attack
The toxic values of the preservative product (in kg/m^3 of wood) fall between two values as follows:
1) The lowest concentration which protects the wood (i.e. the concentration at which none of the test specimens show a degree of attack greater than 1).
The termites employed were Coptotermes formosanus.
All wood bock specimens were of Southern Yellow Pine sapwood (Pinus spp.) with dimensions of 25.4×25.4×6.4 mm in accordance with ASTM D3345-74. All blocks were vacuum impregnated with the relevant solutions in accordance with ASTM D3345-74. Distribution of blocks in the test was as follows:
The test specimens were conditioned and subjected to a leaching schedule (after vacuum impregnation) as stipulated in ASTM D1413-76 (as recommended in ASTM D3345-74). All test specimens were then air dried for two weeks to constant weight.
The specimens were each positioned at the base of a 500 ml polyethylene culture jar (numbered according to each test specimen) and covered with 200 g of sand (pre-washed, sterilised and air conditioned in the laboratory) to which was added 25 g of de-ionised water. A further two containers containing watered sand but no timber were also prepared. All the jars were sealed (lids pre-pierced and covered with stainless steel mesh for aeration).
Two days after specimen placement, 200 termites were added to each culture jar (90% workers and 10% soldiers) and the jars re-sealed. The jars were incubated at a mean temperature and relative humidity of 27.5° C. and 75-90% for 4 weeks. The containers were provided with an artificial lighting regime of 10 hours light and 14 hours darkness.
After 1 week and 4 weeks each container was examined to determine termite mortality and normal tunneling behaviour patterns as follows:
Is there tunneling present: YES/NO
Are there any termites on the surface of the soil: YES/NO (if yes how many, i.e. 1-25% of pop, 26-50% of pop, 51-100% of pop.)
Are any dead termites visible: YES/NO (if yes how many, 1-33%, 34-66%, 67-100%)
After 4 weeks the test specimens were removed and cleaned of debris. Each block was examined and visually rated for termite damage using the scoring system detailed above.
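Throughout, for Termite Attack Rating: score 0 no attack 2 slight 3 average 4 strong attack.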

## CC(C)(c1ccc(O)c(Br)c1)c1cc(Br)c(O)c(Br)c1 [TBA, 2,2′,6-tribromo-4,4′-isopropylidenediphenol]
1 week, solution conc. 1%
  Surface Activity (termites on the surface of the soil): No/No
  Tunneling Activity: Yes/Yes
  Visible Mortality: No/No
1 week, solution conc. 3%
  Surface Activity (termites on the surface of the soil): No/No
  Tunneling Activity: Yes/Yes
  Visible Mortality: No
1 week, solution conc. 5%
  Surface Activity (termites on the surface of the soil): No/No
  Tunneling Activity: Yes/Yes
  Visible Mortality: No
1 week, solution conc. 7%
  Surface Activity (termites on the surface of the soil): No/No
  Tunneling Activity: Yes/Yes
  Visible Mortality: No
1 week, solution conc. 10%
  Surface Activity (termites on the surface of the soil): No/No
  Tunneling Activity: Yes/Yes
  Visible Mortality: No
4 weeks, solution conc. 1%
  Surface Activity (termites on the surface of the soil): No/No
  Tunneling Activity: Yes/Yes
  Visible Mortality: No/No
4 weeks, solution conc. 3%
  Surface Activity (termites on the surface of the soil): No/No
  Tunneling Activity: Yes/Yes
  Visible Mortality: 1-33 % (of pop.)
4 weeks, solution conc. 5%
  Surface Activity (termites on the surface of the soil): No/No
  Tunneling Activity: Yes/Yes
  Visible Mortality: 34-66 % (of pop.)
4 weeks, solution conc. 7%
  Surface Activity (termites on the surface of the soil): No/No
  Tunneling Activity: Yes/Yes
  Visible Mortality: 34-66 % (of pop.)
4 weeks, solution conc. 10%
  Surface Activity (termites on the surface of the soil): No/No
  Tunneling Activity: Yes/Yes
  Visible Mortality: 34-66 % (of pop.)
  reduction in termite attack: a significant reduction in termite attack
  repellent effect on termites (surface activity data): no repellent effect
  termite mortality by the end of the incubation period: 34-66%
4 weeks
  toxic value, lower (concentration at which the wood is no longer sufficiently protected): 30.17 kg/m^3
  toxic value, upper (lowest concentration which protects the wood): 41.22 kg/m^3
Solution conc. 1%
  Mean Rating (termite attack): 3.00
  Termite Attack Rating: 3 and 2 and 4
Solution conc. 3%
  Mean Rating (termite attack): 1.75
  Termite Attack Rating: 2 and 1
Solution conc. 5%
  Mean Rating (termite attack): 1.75
  Termite Attack Rating: 2 and 1
Solution conc. 7%
  Mean Rating (termite attack): 1.00
  Termite Attack Rating: 1
Solution conc. 10%
  Mean Rating (termite attack): 1.00
  Termite Attack Rating: 1

## Oc1c(Br)cc(C2(c3cc(Br)c(O)c(Br)c3)CCCCC2)cc1Br [TBBZ, 4,4′-cyclohexylidene(2,6-dibromophenol)]
1 week, solution conc. 1%
  Surface Activity (termites on the surface of the soil): No/No
  Tunneling Activity: Yes/Yes
  Visible Mortality: No/No
1 week, solution conc. 3%
  Surface Activity (termites on the surface of the soil): No/No
  Tunneling Activity: Yes/Yes
  Visible Mortality: No
1 week, solution conc. 5%
  Surface Activity (termites on the surface of the soil): No/No
  Tunneling Activity: Yes/Yes
  Visible Mortality: No
1 week, solution conc. 7%
  Surface Activity (termites on the surface of the soil): 1-25 % (of pop.)
  Tunneling Activity: Yes/Yes
  Visible Mortality: No
1 week, solution conc. 10%
  Surface Activity (termites on the surface of the soil): 1-25 % (of pop.)
  Tunneling Activity: Yes/Yes
  Visible Mortality: No
4 weeks, solution conc. 1%
  Surface Activity (termites on the surface of the soil): No/No
  Tunneling Activity: Yes/Yes
  Visible Mortality: No/No
4 weeks, solution conc. 3%
  Surface Activity (termites on the surface of the soil): No/No
  Tunneling Activity: Yes/Yes
  Visible Mortality: 1-33 % (of pop.)
4 weeks, solution conc. 5%
  Surface Activity (termites on the surface of the soil): No/No
  Tunneling Activity: Yes/Yes
  Visible Mortality: 34-66 % (of pop.)
4 weeks, solution conc. 7%
  Surface Activity (termites on the surface of the soil): No
  Tunneling Activity: Yes/Yes
  Visible Mortality: 34-66 % (of pop.)
4 weeks, solution conc. 10%
  Surface Activity (termites on the surface of the soil): No
  Tunneling Activity: Yes/Yes
  Visible Mortality: 67-100 % (of pop.)
  reduction in termite attack: a significant reduction in termite attack; also recorded: the higher concentrations do reduce termite attack
  repellent effect on termites (surface activity data): a degree of termite repellency
Solution conc. 1%
  Mean Rating (termite attack): 2.50
  Termite Attack Rating: 4 and 2
Solution conc. 3%
  Mean Rating (termite attack): 1.50
  Termite Attack Rating: 2 and 1
Solution conc. 5%
  Mean Rating (termite attack): 1.25
  Termite Attack Rating: 1 and 2
Solution conc. 7%
  Mean Rating (termite attack): 1.25
  Termite Attack Rating: 1 and 2
Solution conc. 10%
  Mean Rating (termite attack): 1.25
  Termite Attack Rating: 1 and 2

## CC(c1cc(Br)c(O)c(Br)c1)c1cc(Br)c(O)c(Br)c1 [TBBE, 4,4′-ethylidenebis(2,6-dibromophenol)]
1 week, solution conc. 1%
  Surface Activity (termites on the surface of the soil): No/No
  Tunneling Activity: Yes/Yes
  Visible Mortality: No/No
1 week, solution conc. 3%
  Surface Activity (termites on the surface of the soil): No/No
  Tunneling Activity: Yes/Yes
  Visible Mortality: No
1 week, solution conc. 5%
  Surface Activity (termites on the surface of the soil): No/No
  Tunneling Activity: Yes/Yes
  Visible Mortality: No
1 week, solution conc. 7%
  Surface Activity (termites on the surface of the soil): 1-25%/1-25% (of % (of pop.)
  Tunneling Activity: Yes/Yes
1 week, solution conc. 10%
  Surface Activity (termites on the surface of the soil): 1-25%/1-25% (of % (of pop.)
  Tunneling Activity: Yes/Yes
  Visible Mortality: No
4 weeks, solution conc. 1%
  Surface Activity (termites on the surface of the soil): No/No
  Tunneling Activity: Yes/Yes
  Visible Mortality: No/No
4 weeks, solution conc. 3%
  Surface Activity (termites on the surface of the soil): No/No
  Tunneling Activity: Yes/Yes
  Visible Mortality: 1-33 % (of pop.)
4 weeks, solution conc. 5%
  Surface Activity (termites on the surface of the soil): No/No
  Tunneling Activity: Yes/Yes
4 weeks, solution conc. 7%
  Surface Activity (termites on the surface of the soil): 1-25%/1-25% (of % (of pop.)
  Tunneling Activity: Yes/Yes
  Visible Mortality: 67-100 % (of pop.)
4 weeks, solution conc. 10%
  Surface Activity (termites on the surface of the soil): 1-25%/1-25% (of % (of pop.)
  Tunneling Activity: Yes/Yes
  Visible Mortality: 67-100 % (of pop.)
  reduction in termite attack: a significant reduction in termite attack
  repellent effect on termites (surface activity data): a degree of termite repellency; also recorded: a repellent effect at certain stages of the incubation period; also recorded: a repellent effect early in the incubation period at higher concentrations
  termite mortality by the end of the incubation period: significant termite mortality
4 weeks
  toxic value, lower (concentration at which the wood is no longer sufficiently protected): 28.53 kg/m^3
  toxic value, upper (lowest concentration which protects the wood): 35.93 kg/m^3
Solution conc. 1%
  Mean Rating (termite attack): 3.00
  Termite Attack Rating: 3
Solution conc. 3%
  Mean Rating (termite attack): 2.00
  Termite Attack Rating: 2 and 3 and 1
Solution conc. 5%
  Mean Rating (termite attack): 1.50
  Termite Attack Rating: 2 and 1
Solution conc. 7%
  Mean Rating (termite attack): 1.00
  Termite Attack Rating: 1
Solution conc. 10%
  Mean Rating (termite attack): 1.25
  Termite Attack Rating: 1 and 2

Source: patent US20040266885A1, “Wood preservative compositions” (priority 2001, published 2004)
